IC50 data for 28 compounds are collected here from US20250332173A1, “COMPOUNDS AND METHODS FOR MODULATING NUCLEIC ACID SPLICING” (REMIX THERAPEUTICS INC., priority 2021, published 2025).

For orientation: IC50 means the concentration at which inhibition is half-maximal.

The subject of assay [1] is MYB. In words: HiBiT protein abundance assay, MYB HiBiT K562 cell line. In kind it is cell-based, human. To be noted: 24 hours, top dose 10 μM. In short, it runs like this:
(§1)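 K562 knock-in lines with endogenous HiBiT-tagged target, 10,000 cells/well in IMDM + FBS, treated 24 h at 37° C with 10-point 3-fold dilutions (top 10 μM final; DMSO ≤0.25%). Lytic Nano-Glo HiBiT luminescence normalized to untagged K562 baseline and DMSO controls; IC50 = concentration giving 50% abundance via four-parameter fit.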
On the technique in general: With HiBiT, luminescence reflects the tagged protein that the partner subunit can reach.

The test system of assay [2] is HTT. In words: HiBiT protein abundance assay, HTT HiBiT K562 cell line. It counts as cell-based, human. The settings on record: 24 hours, top dose 10 μM. In short, it runs like this:
as §1

The subject of assay [3] is Target C. In words: HiBiT protein abundance assay, Target C HiBiT K562 cell line. It counts as cell-based. To be noted: Homo sapiens; HiBiT lytic detection, modified K562 cells, 24 hours, top dose 10 μM; read-out: Effect on protein abundance, Target C (IC50). The procedure, abridged: (§2)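 Knock-in K562 cells carrying HiBiT-tagged Target C, 10,000 per well, treated 24 h at 37 °C with 10-point threefold dilutions (top 10 μM final, ≤0.25% DMSO). Lytic HiBiT luminescence read; response normalised to unmodified K562 and DMSO controls, four-parameter fit interpolated at 50% for IC50.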

Assay [4] relates to Target C. In words: HiBiT protein abundance assay, Target C (Promega Nano-Glo HiBiT Lytic Detection System, knock-in K562 cell line). In kind it is cell-based, human. The settings on record: Homo sapiens, K562, 24 h, HiBiT K562 cell line, 24 hours, top dose 10 μM; read-out: Effect on protein abundance, Target C (IC50 category). The procedure, abridged: as §2
[5] abbreviates: HiBiT lytic detection, modified K562 cells, read-out: Effect on protein abundance, MYB (IC50).
Where [6] appears, read: HiBiT lytic detection, modified K562 cells, read-out: Effect on protein abundance, HTT (IC50).
[7] abbreviates: HiBiT K562 cell line, read-out: Effect on protein abundance, MYB (IC50 category).
The mark [8] stands for this setting: HiBiT K562 cell line, read-out: Effect on protein abundance, HTT (IC50 category).

Read-outs that look alike come from different tables or passages of the source. Some results are limits rather than exact numbers.

Consider `Cc1cn2nc(-c3ccc4c(=O)n(C5CC(C)N[C@H](C)C5)ncc4n3)cc(C)c2n1` (stereo in doubt) [Compound 1536, 2-(2,8-dimethylimidazo[1,2-b]pyridazin-6-yl)-6-[(2S,6R)-2,6-dimethyl-4-piperidyl]pyrido[2,3-d]pyridazin-5-one], for which the 50% inhibitory concentration (IC50) in assay [1] (setting [5]), in assay [2] (setting [6]) and in assay [3] was 100 to 1000 nM throughout.
For the compound `Cc1c(O)c(-c2ncc3c(=O)n([C@H]4CC[C@@H](N(C)C)CC4)ccc3n2)cc2cn(C)nc12` [Compound 1460, 6-((1s,4s)-4-(dimethylamino)cyclohexyl)-2-(6-hydroxy-2,7-dimethyl-2H-indazol-5-yl)pyrido[4,3-d]pyrimidin-5(6H)-one], the IC50 in assay [1] (setting [7]) was 100 to 1000 nM; in assay [2] (setting [8]), 100 to 1000 nM; in assay [4] it was 1000 to 10000 nM.
In the case of `Cc1c(O)c(-c2ncc3c(=O)n([C@H]4CCN[C@H](C)C4)ccc3n2)cc2cn(C)nc12` [Compound 1461, 2-(6-hydroxy-2,7-dimethyl-indazol-5-yl)-6-[(2R,4S)-2-methyl-4-piperidyl]pyrido[4,3-d]pyrimidin-5-one], the IC50 in assay [1] (setting [7]) was under 100 nM; in assay [2] (setting [8]), 100 to 1000 nM; in assay [4], 100 to 1000 nM.
For the compound `Cc1c(O)c(-c2ncc3c(=O)n([C@@H]4CCN[C@@H](C)C4)ccc3n2)cc2cn(C)nc12` [Compound 1462, 2-(6-hydroxy-2,7-dimethyl-indazol-5-yl)-6-[(2S,4R)-2-methyl-4-piperidyl]pyrido[4,3-d]pyrimidin-5-one], the IC50 in assay [1] (setting [7]) is under 100 nM; in assay [2] (setting [8]), under 100 nM; in assay [4], 100 to 1000 nM.
For `Cc1c(O)c(-c2ccc3c(=O)n([C@@H]4C[C@@H](C)N[C@@H](C)C4)ccc3n2)cc2cn(C)nc12` [Compound 1463, 6-[(2S,6R)-2,6-dimethyl-4-piperidyl]-2-(6-hydroxy-2,7-dimethyl-indazol-5-yl)-1,6-naphthyridin-5-one], the IC50 in assay [1] (setting [7]) lay within 100 to 1000 nM; in assay [2] (setting [8]) it was 100 to 1000 nM; in assay [4] it was 1000 to 10000 nM.
Regarding `Cc1c(O)c(-c2ccc3c(=O)n([C@H]4C[C@@H](C)N[C@@H](C)C4)ccc3n2)cc2cn(C)nc12` [Compound 1464, 6-[(2S,6R)-2,6-dimethyl-4-piperidyl]-2-(6-hydroxy-2,7-dimethyl-indazol-5-yl)-1,6-naphthyridin-5-one], the results for the IC50 in assay [1] (setting [7]), in assay [2] (setting [8]) and in assay [4] were under 100 nM, 100 to 1000 nM and 100 to 1000 nM, respectively.
Consider `Cn1cc2cc(-c3ncc4c(=O)n([C@H]5CCNC5)ccc4n3)c(O)c(F)c2n1` [Compound 1465], for which the concentration for half-maximal inhibition (IC50) in assay [1] (setting [7]), in assay [2] (setting [8]) and in assay [4] was 100 to 1000 nM each time.
With `Cn1cc2cc(-c3ncc4c(=O)n([C@@H]5CCNC5)ccc4n3)c(O)c(F)c2n1` [Compound 1466], the IC50 in assay [1] (setting [5]), in assay [2] (setting [6]) and in assay [3] was 100 to 1000 nM throughout.
For the compound `Cc1c(O)c(-c2ccc3c(=O)n(C4CCNC4)cc(C)c3n2)cc2cn(C)nc12` (stereo not drawn) [Compound 1467], the 50% inhibitory concentration (IC50) lay in the range of 100 to 1000 nM in assay [1] (setting [5]), 100 to 1000 nM in assay [2] (setting [6]) and 1000 to 10000 nM in assay [3].
For `Cn1cc2cc(-c3ncc4c(=O)n(C56CCC(N)(CC5)C6)ccc4n3)c(O)c(F)c2n1` [Compound 1468], the figures for the IC50 in assay [1] (setting [5]), in assay [2] (setting [6]) and in assay [3] were under 100 nM, 100 to 1000 nM and 100 to 1000 nM, respectively.
`Cc1cn2cc(-c3ncc4c(=O)n(C56CCC(N)(CC5)C6)ccc4n3)cc(F)c2n1` [Compound 1469, 6-(4-aminonorbornane-1-yl)-2-(8-fluoro-2-methyl-imidazo[1,2-a]pyridin-6-yl)pyrido[4,3-d]pyrimidin-5-one]: the figures for the half-maximal inhibitory concentration (IC50) in assay [1] (setting [5]), in assay [2] (setting [6]) and in assay [3] were 100 to 1000 nM, 1000 to 10000 nM and 1000 to 10000 nM, respectively.
On to `Cn1cc2cc(-c3ncc4c(=O)n(C56CCC(N)(CC5)C6)ccc4n3)c(O)cc2n1` [Compound 1470], for which the concentration for half-maximal inhibition (IC50) was 100 to 1000 nM in assay [1] (setting [5]), 1000 to 10000 nM in assay [2] (setting [6]) and 1000 to 10000 nM in assay [3].
For the compound `Cc1c(O)c(-c2ncc3c(=O)n([C@@H]4C[C@H]5COC[C@@H](C4)N5)ccc3n2)cc2cn(C)nc12` [Compound 1471], the half-maximal inhibitory concentration (IC50) in assay [1] (setting [5]), in assay [2] (setting [6]) and in assay [3] was 100 to 1000 nM throughout.
As for `Cc1c(O)c(-c2ncc3c(=O)n([C@@H]4CC[C@@H](N)C4)ccc3n2)cc2cn(C)nc12` [Compound 1476, 6-[(1R,3R)-3-aminocyclopentyl]-2-(6-hydroxy-2,7-dimethyl-indazol-5-yl)pyrido[4,3-d]pyrimidin-5-one], the half-inhibitory concentration (IC50) in assay [1] (setting [5]) lay within 100 to 1000 nM; in assay [2] (setting [6]), 100 to 1000 nM; in assay [3], 1000 to 10000 nM.
As for `Cc1c(O)c(-c2ncc3c(=O)n([C@@H]4CC[C@H](N)C4)ccc3n2)cc2cn(C)nc12` [Compound 1477], the half-maximal inhibitory concentration (IC50) in assay [1] (setting [5]) is 100 to 1000 nM; in assay [2] (setting [6]), under 100 nM; in assay [3], 100 to 1000 nM.
Turning to `CNC12CCC(n3ccc4nc(-c5cc6cn(C)nc6c(C)c5O)ncc4c3=O)(CC1)C2` [Compound 1479], the half-maximal inhibitory concentration (IC50) in assay [1] (setting [5]) was under 100 nM; in assay [2] (setting [6]), 100 to 1000 nM; in assay [3], 1000 to 10000 nM.
For `Cc1c(O)c(-c2ncc3c(=O)n([C@H]4CCNC5(CC5)C4)ccc3n2)cc2cn(C)nc12` [Compound 1512], in that order: under 100 nM, under 100 nM and 100 to 1000 nM.
Turning to `Cc1c(O)c(-c2nc(C)c3c(=O)n([C@@H]4CCNC5(CC5)C4)ccc3n2)cc2cn(C)nc12` [Compound 1515, (R)-2-(6-hydroxy-2,7-dimethyl-2H-indazol-5-yl)-4-methyl-6-(4-azaspiro[2.5]octan-7-yl)pyrido[4,3-d]pyrimidin-5(6H)-one], the IC50 was under 100 nM in assay [1] (setting [5]), 100 to 1000 nM in assay [2] (setting [6]) and 100 to 1000 nM in assay [3].
In the case of `COc1cc(-c2ccc3c(=O)n([C@H]4CCN[C@@H](C)C4)ccc3n2)nn2cc(C)nc12` [Compound 1519, 2-(8-methoxy-2-methyl-imidazo[1,2-b]pyridazin-6-yl)-6-[(2S,4S)-2-methyl-4-piperidyl]-1,6-naphthyridin-5-one], the concentration for half-maximal inhibition (IC50) in assay [1] (setting [5]), in assay [2] (setting [6]) and in assay [3] was under 100 nM in each case.
As to `Cc1cn2nc(-c3ccc4c(=O)n([C@@H]5CCN(C)[C@H](C)C5)ncc4n3)cc(C)c2n1` [Compound 1527], the IC50 in assay [1] (setting [5]), in assay [2] (setting [6]) and in assay [3] was 100 to 1000 nM throughout.
`Cc1cn2nc(-c3ccc4c(=O)n([C@H]5CCN(C)[C@@H](C)C5)ncc4n3)cc(C)c2n1` [Compound 1528, 2-(2,8-dimethylimidazo[1,2-b]pyridazin-6-yl)-6-(1,2-dimethyl-4-piperidyl)pyrido[2,3-d]pyridazin-5-one]: the IC50 in assay [1] (setting [5]), in assay [2] (setting [6]) and in assay [3] was 100 to 1000 nM each time.
Turning to `CCN1CC[C@@H](n2ncc3nc(-c4cc(C)c5nc(C)cn5n4)ccc3c2=O)CC12CC2` [Compound 1530], the concentration for half-maximal inhibition (IC50) in assay [1] (setting [5]), in assay [2] (setting [6]) and in assay [3] was under 100 nM in each case.
As to `CCN1CC[C@H](n2ncc3nc(-c4cc(C)c5nc(C)cn5n4)ccc3c2=O)CC12CC2` [Compound 1531], the concentration for half-maximal inhibition (IC50) in assay [1] (setting [5]), in assay [2] (setting [6]) and in assay [3] was 100 to 1000 nM in each case.
Consider `Cc1cn2nc(-c3ccc4c(=O)n([C@H]5CCN(C)C6(CC6)C5)ncc4n3)cc(C)c2n1` [Compound 1533], for which the concentration for half-maximal inhibition (IC50) in assay [1] (setting [5]), in assay [2] (setting [6]) and in assay [3] was 100 to 1000 nM throughout.
As to `Cc1cn2nc(-c3ccc4c(=O)n([C@@H]5CCN(C)C6(CC6)C5)ncc4n3)cc(C)c2n1` [Compound 1534], the IC50 in assay [1] (setting [5]) was 100 to 1000 nM; in assay [2] (setting [6]), under 100 nM; in assay [3] it was under 100 nM.
Consider `Cc1cn2nc(-c3ccc4c(=O)n(C5CCN(CCO)C6(CC6)C5)ncc4n3)cc(C)c2n1` (stereo not drawn) [Compound 1541, 2-(2,8-dimethylimidazo[1,2-b]pyridazin-6-yl)-6-[4-(2-hydroxyethyl)-4-azaspiro[2.5]octan-7-yl]pyrido-[2,3-d]pyridazin-5-one], for which the IC50 in assay [1] (setting [7]) is 100 to 1000 nM; in assay [2] (setting [8]), under 100 nM; in assay [4], 100 to 1000 nM.
With `Cc1cn2nc(-c3ccc4c(=O)n(C5CCN(CCF)C6(CC6)C5)ncc4n3)cc(C)c2n1` (stereo not drawn) [Compound 1542, 2-(2,8-dimethylimidazo[1,2-b]pyridazin-6-yl)-6-[4-(2-fluoroethyl)-4-azaspiro[2.5]octan-7-1]pyrido[2,3-d]pyridazin-5-one], the half-inhibitory concentration (IC50) in assay [1] (setting [5]) was in the range of 1000 to 10000 nM; in assay [2] (setting [6]) it was 100 to 1000 nM; in assay [3] it was 100 to 1000 nM.
`Cc1cn2nc(-c3ccc4c(=O)n(C5CCN(CC6CC6)C6(CC6)C5)ncc4n3)cc(C)c2n1` (stereo not drawn) [Compound 1543, 6-[4-(cyclopropylmethyl)-4-azaspiro[2.5]octan-7-yl]-2-(2,8-dimethylimidazo[1,2-b]pyridazin-6-yl)pyrido[2,3-d]pyridazin-5-one]: the half-maximal inhibitory concentration (IC50) is 100 to 1000 nM in assay [1] (setting [5]), under 100 nM in assay [2] (setting [6]) and 100 to 1000 nM in assay [3].
